Reference: patent US8057829B2, “Methods for repelling insects using sesquiterpene hydrocarbons and their derivatives” (Sterling International Inc., priority 2008, dated 2011)

Assays:
[1] = test system: male false stable fly Muscina stabulans antenna and female mosquito Aedes (Ochlerotatus) increpitus Dyar antenna; assay: GC-EAD responses of false stable fly and Aedes increpitus to a synthetic mixture; settings: about 100 ng of each compound, FIG. 5
Experimental: The GC-EAD responses of the male false stable fly Muscina stabulans antenna and the female mosquito Aedes (Ochlerotatus) increpitus Dyar antenna were tested on a synthetic mixture of linalool and two representative sesquiterpene hydrocarbons, β-caryophyllene and α-humulene, and one sesquiterpene oxide, β-caryophyllene oxide, with about 100 ng of each compound in the mixture.
(§1) The following procedures were employed to test the EAD response of an insect antenna to a repellent compound. The GC-EAD technique provides an efficient tool for screening behaviorally active repellents. Several synthetic mixtures of potential insect repellent candidates, mostly sesquiterpene hydrocarbons and derivatives, were analyzed in splitless mode using a Varian CP-3800 GC equipped with a polar column (Innowax; 1.0 μm film thickness, 30 m×0.53 mm ID; J & W Scientific), and a 1:1 effluent splitter that allowed simultaneous flame ionization detection (FID) and EAD of the separated volatile compounds. Helium was used as the carrier gas, and the injector temperature was 220° C. The column temperature was 50° C. for 2 min, rising to 240° C. at 10° C./min, then held for 10 min. The outlet for the EAD was held in a humidified air stream flowing at 0.5 liter/min. over an antennal preparation. A glass capillary indifferent electrode filled with Beadle-Ephrussi Ringer, and grounded via a silver wire, was inserted into the severed insect's head with the antennae. A similar recording electrode connected to a high-impedance DC amplifier with automatic baseline drift compensation was placed in contact with the distal end of one antenna (Zhang et al., Chemoecology, 10:69-80 (2000)). The antennal signals were stored and analyzed on a PC equipped with a serial IDAC interface box and the program EAD ver. 2.5 (Syntech, Hilversum, The Netherlands). The compound 1-octen-3-ol (known attractant for many flies and mosquitoes) was included in most of the synthetic mixtures, as a positive control. The results of the experiments are shown in FIGS. 1-10 and described above.

[2] = test system: antennae of Musca domestica, Lucillia sericata, Sarcophaga sp., Muscina stabulans, Culex pipiens, Aedes increpitus; assay: GC-EAD responses of several flies and two mosquitoes to a synthetic mixture; settings: about 100 ng of each compound, FIG. 6
Experimental: The GC-EAD responses of several species of flies and two species of mosquito antennae were tested on a synthetic mixture of 1-octen-3-ol, linalool, two representative sesquiterpene hydrocarbons, β-caryophyllene and α-humulene, ZE-nepetalactone, EZ-nepetalactone, and two known insect repellents, DEET, and SS220, with about 100 ng of each compound in the mixture. DEET and SS220 are used as positive controls in the experiment. The compound 1-octen-3-ol is a known attractant for the insects and is also used as a positive control. The insects tested are species of Musca domestica, Lucillia sericata, Sarcophaga sp., Muscina stabulans, Culex pipiens, and Aedes increpitus.
as §1, with “2.5 (Syntech, Hilversum, The Netherlands). The compound 1-octen-3-ol (known attractant for many flies and mosquitoes) was included in most of the synthetic mixtures, as a positive control. The results of the experiments are shown in FIGS. 1-10 and described above.” left out

[3] = test system: female antennae of sand fly Phlebotomus papatasi and mosquitoes Aedes aegypti, Anopheles gambiae, Anopheles stephensi; assay: GC-EAD responses of sand fly and three mosquitoes to synthetic mixtures; settings: about 100 ng of each compound, on one or more of the sand fly or the mosquitoes, FIGS. 9 and 10
Experimental: The GC-EAD responses of female antennae of the sand fly, Phlebotomus papatasi, and three species of mosquitoes, Aedes aegypti, Anopheles gambiae, and anopheles stephensi were tested on a synthetic mixture of 1-octen-3-ol, six sesquiterpene hydrocarbons including (+)-longipinene, (−)-isolongifolene, (+)-longifolene, β-caryophyllene, isolongifolenone, and α-humulene, and several known insect repellents including ZE-nepetalactone, EZ-nepetalactone, with about 100 ng of each compound in the mixture.
The GC-EAD responses of female antennae of the sand fly, Phlebotomus papatasi, and three species mosquitoes, Aedes aegypti, Anopheles gambiae, and anopheles stephensi were tested on a synthetic mixture of 1-octen-3-ol, linalool, β-caryophyllene oxide, isocaryophyllene, β-caryophyllene, and α-humulene, and DEET, with about 100 ng of each compound in the mixture.
as §1

[4] = test system: housefly (Musca domestica) antenna; assay: GC-EAD antennal response, housefly; settings: female housefly antenna; synthetic mixture, about 100 ng of each compound; FIG. 3
From the text: The sesquiterpene hydrocarbons and their derivatives disclosed herein have been identified as suitable insect repellents by testing via a gas chromatographic-electroantennographic detection (GC-EAD) method as described in Example 1 below. This method can be used to efficiently screen for potentially behaviorally active compounds, including insect repellents, attractants, deterrents, or attraction-inhibitors from complex natural sources or synthetic mixtures.
The GC-EAD responses of the female housefly antenna were tested on a synthetic mixture of 1-octen-3-ol, a known attractant used as a positive control, and representative sesquiterpene hydrocarbons and derivatives, (+)-longipinene, (−)-isolongifolene, (+)-longifolene, β-caryophyllene, α-humulene, and isolongifolenone, with about 100 ng of each compound in the mixture.
The GC-EAD responses of the male housefly antenna were tested on a synthetic mixture of 1-octen-3-ol, and two representative sesquiterpenes, β-caryophyllene and isocaryophyllene, with about 100 ng of each compound in the mixture.
as §1

[5] = test system: antennae of housefly, sand fly, and mosquitoes Aedes aegypti, Anopheles gambiae, Anopheles stephensi; assay: GC-EAD antennal responses to SPME samples of clove essential oil; settings: component of clove essential oil SPME sample; response by one or more of the insects; FIG. 1
Experimental: The GC-EAD antennal response of a female housefly (Musca domestica), sand fly (Phlebotomus papatasi), and mosquitoes including the species Aedes aegypti, Anopheles gambiae, and Anopheles stephensi were tested with clove essential oil. FIG. 1 is a simultaneous recording of GC flame ionization detection (FID) and electroantennographic detection (EAD) of the insect antennae to solid phase microextraction (SPME: CAR/PDMS) samples of clove essential oil in a 20 ml glass vial for 20 sec.
as §1, with “The results of the experiments are shown in FIGS. 1-10 and described above.” left out

houseflies = assay: Laboratory sticky trap bioassay of spatial repellency with egg powder attractant; format: in vivo, housefly (Musca domestica)
Experimental: Laboratory bioassay tests were carried out to investigate the efficacy of some of the EAD-active compounds described above to act as spatial repellents against several insects. The procedure for the bioassay tests is described in Example 2 below. Briefly stated, the bioassay included using egg powder (EP) as an attractant for flies, while the compound whose insect repellency was being tested was placed in proximity to the egg powder. In FIGS. 11-13, the bioassay was carried out on houseflies using devices known by the designation Trécé Pherocon® VI sticky traps.
The following lab bioassay tests were employed to illustrate the efficacy of the compounds to effectively act as spatial repellents for flies. Three sets of tests were conducted in a fly testing room (23° C., 70% RH, and 12/12 (L/D) light regime illuminated by fluorescent lights). Two sets of tests were carried out using Trécé Pherocon® VI traps with sticky inserts, which were set up on poles evenly spaced on a rotating table. The traps were ca. 1 m above a table surface, and ca. 1 m apart from each other. Two grams of egg powder in a white cap (4 cm in diameter, 0.5 cm in height) used as an attractant was put on the center of the sticky insert in the sticky trap. The potential repellent candidate chemicals were loaded into polyethylene bags, and were hung under the inner roof of the traps, 1-1.5 cm above the egg powder attractant. A control had the empty white cap and blank polyethylene bag, while the positive control had only the egg powder and an empty polyethylene bag. The test table was rotated 1.5 r.p.h. […] About 200-300 houseflies (2-3 days old) were released into the testing room for each test. Tests were normally run from 8:00 am to 5:00 pm, and the numbers of houseflies caught in each trap were counted after each test. The results of these tests are shown in FIGS. 11-13 and described above.

`C/C1=C\CC/C(C)=C/CC(C)(C)/C=C/C1` [α-humulene] was tested, and the GC-EAD antennal activity [1] was “active on at least one of the insects tested”, the GC-EAD antennal activity [2] was “active on at least one of the insects tested” and the GC-EAD antennal activity [3] was “antennally active”. The GC-EAD antennal activity [4] was “active” and the GC-EAD antennal activity [5] was “EAD-active”.
`C=CC(C)(O)CCC=C(C)C` (stereo not shown) [linalool, 3,7-dimethyl-3-hydroxy-1,6-octadiene] was tested, and the GC-EAD antennal activity [1] was “active on at least one of the insects tested”, the GC-EAD antennal activity [2] was “active on at least one of the insects tested” and the GC-EAD antennal activity [3] was “antennally active”. For the same compound, the “number of house flies per trap” value (houseflies; egg powder attractant plus repellent, FIG. 11, egg powder alone 44) was 5.5 house flies per trap and the “repellency against houseflies, in words” value (houseflies; laboratory trap bioassay with egg powder attractant) was “effective housefly repellents”.
